Tests used:
[1] = tested on: Influenza A/TW/70058/09 (H1N1); experiment: microbe, parasite or virus in culture; assay type: cell-based; conditions: H1N1, read-out: EC50 on the inhibition of replication (viral plaque reduction assay)
[2] = tested on: Influenza A/TW/70066/09 (H1N1); experiment: microbe, parasite or virus in culture; assay type: cell-based; conditions: H1N1, read-out: EC50 on the inhibition of replication (viral plaque reduction assay)

Nc1c(S(=O)(=O)O)cc(Nc2cccc(S(=O)(=O)CCOS(=O)(=O)O)c2)c2c1C(=O)c1ccccc1C2=O [RB19, remazol brilliant blue R]
EC50 [1]: 9.8 µM | EC50 [2]: 11.9 µM

Reference: patent publication US20140194392A1 (priority 2013, published 2014)
